{"source": "ChEMBL document CHEMBL3865818", "about": "“4,5-Diaryl-3H-1,2-dithiole-3-thiones and related compounds as combretastatin A-4/oltipraz hybrids: Synthesis, molecular modelling and evaluation as antiproliferative agents and inhibitors of tubulin” (Eur J Med Chem, 2016)", "key": {"[1]": {"test": "Cell cycle arrest in human KB cells assessed as accumulation at G0/G1-phase at 0.1 uM measured after 24 hrs by propidium iodide staining-based flow cytometry (reference value: 48.52%)", "assay_type": "functional"}, "[2]": {"test": "Cell cycle arrest in human KB cells assessed as accumulation at S-phase at 0.05 uM measured after 24 hrs by propidium iodide staining-based flow cytometry (reference value: 16.96%)", "assay_type": "functional"}, "[3]": {"test": "Cell cycle arrest in human KB cells assessed as accumulation at SubG1-phase at 0.2 uM measured after 48 hrs by propidium iodide staining-based flow cytometry (reference value: 0.61%)", "assay_type": "functional"}, "KB": {"system": "KB", "test": "Inhibition of alpha-tubulin in human KB cells assessed as induction of mitotic catastrophe by measuring multiple micronuclei formation at 0.2 uM by DAPI staining-based immunofluorescence assay", "assay_type": "cell-based"}, "[4]": {"test": "Cell cycle arrest in human KB cells assessed as accumulation at SubG1-phase measured after 60 hrs by propidium iodide staining-based flow cytometry (reference value: 1.24%)", "assay_type": "functional"}, "[5]": {"test": "Cell cycle arrest in human KB cells assessed as accumulation at G0/G1-phase at 0.1 uM measured after 12 hrs by propidium iodide staining-based flow cytometry (reference value: 48.26%)", "assay_type": "functional"}, "[6]": {"test": "Cell cycle arrest in human KB cells assessed as accumulation at SubG1-phase measured after 12 hrs by propidium iodide staining-based flow cytometry (reference value: 1.23%)", "assay_type": "functional"}, "[7]": {"test": "Cell cycle arrest in human KB cells assessed as accumulation at S-phase at 0.05 uM measured after 60 hrs by propidium iodide staining-based flow cytometry (reference value: 12.66%)", "assay_type": "functional"}, "[8]": {"test": "Cell cycle arrest in human KB cells assessed as accumulation at G0/G1-phase at 0.1 uM measured after 48 hrs by propidium iodide staining-based flow cytometry (reference value: 58.26%)", "assay_type": "functional"}, "[9]": {"test": "Cell cycle arrest in human KB cells assessed as accumulation at G2/M-phase measured after 24 hrs by propidium iodide staining-based flow cytometry (reference value: 28.84%)", "assay_type": "functional"}, "[10]": {"test": "Antiproliferative activity against human SGC7901 cells measured after 72 hrs by MTT assay", "assay_type": "functional, cell-based", "conditions": "SGC-7901, 72 h"}, "[11]": {"test": "Cell cycle arrest in human KB cells assessed as accumulation at G0/G1-phase at 0.05 uM measured after 36 hrs by propidium iodide staining-based flow cytometry (reference value: 51.51%)", "assay_type": "functional"}, "[12]": {"test": "Cell cycle arrest in human KB cells assessed as accumulation at G2/M-phase at 0.2 uM measured after 48 hrs by propidium iodide staining-based flow cytometry (reference value: 23.36%)", "assay_type": "functional"}, "[13]": {"test": "Cell cycle arrest in human KB cells assessed as accumulation at G0/G1-phase at 0.05 uM measured after 60 hrs by propidium iodide staining-based flow cytometry (reference value: 63.85%)", "assay_type": "functional"}, "[14]": {"test": "Cell cycle arrest in human KB cells assessed as accumulation at SubG1-phase at 0.2 uM measured after 60 hrs by propidium iodide staining-based flow cytometry (reference value: 1.24%)", "assay_type": "functional"}, "[15]": {"test": "Cell cycle arrest in human KB cells assessed as accumulation at G0/G1-phase at 0.1 uM measured after 60 hrs by propidium iodide staining-based flow cytometry (reference value: 63.85%)", "assay_type": "functional"}, "[16]": {"test": "Cell cycle arrest in human KB cells assessed as accumulation at G2/M-phase at 0.05 uM measured after 24 hrs by propidium iodide staining-based flow cytometry (reference value: 28.84%)", "assay_type": "functional"}, "[17]": {"test": "Cell cycle arrest in human KB cells assessed as accumulation at S-phase measured after 12 hrs by propidium iodide staining-based flow cytometry (reference value: 15.5%)", "assay_type": "functional"}, "[18]": {"test": "Cell cycle arrest in human KB cells assessed as accumulation at SubG1-phase at 0.2 uM measured after 12 hrs by propidium iodide staining-based flow cytometry (reference value: 1.23%)", "assay_type": "functional"}, "[19]": {"test": "Cell cycle arrest in human KB cells assessed as accumulation at SubG1-phase at 0.2 uM measured after 24 hrs by propidium iodide staining-based flow cytometry (reference value: 0.76%)", "assay_type": "functional"}, "[20]": {"test": "Cell cycle arrest in human KB cells assessed as accumulation at G0/G1-phase at 0.2 uM measured after 48 hrs by propidium iodide staining-based flow cytometry (reference value: 58.26%)", "assay_type": "functional"}, "[21]": {"test": "Cell cycle arrest in human KB cells assessed as accumulation at G0/G1-phase at 0.05 uM measured after 48 hrs by propidium iodide staining-based flow cytometry (reference value: 58.26%)", "assay_type": "functional"}, "[22]": {"test": "Cell cycle arrest in human KB cells assessed as accumulation at G0/G1-phase at 0.05 uM measured after 24 hrs by propidium iodide staining-based flow cytometry (reference value: 48.52%)", "assay_type": "functional"}, "[23]": {"test": "Cell cycle arrest in human KB cells assessed as accumulation at G2/M-phase at 0.1 uM measured after 48 hrs by propidium iodide staining-based flow cytometry (reference value: 23.36%)", "assay_type": "functional"}, "[24]": {"test": "Cell cycle arrest in human KB cells assessed as accumulation at S-phase at 0.2 uM measured after 36 hrs by propidium iodide staining-based flow cytometry (reference value: 16.51%)", "assay_type": "functional"}, "[25]": {"test": "Cell cycle arrest in human KB cells assessed as accumulation at S-phase measured after 36 hrs by propidium iodide staining-based flow cytometry (reference value: 16.51%)", "assay_type": "functional"}, "[26]": {"test": "Cell cycle arrest in human KB cells assessed as accumulation at G0/G1-phase at 0.2 uM measured after 60 hrs by propidium iodide staining-based flow cytometry (reference value: 63.85%)", "assay_type": "functional"}, "[27]": {"test": "Cell cycle arrest in human KB cells assessed as accumulation at S-phase at 0.1 uM measured after 36 hrs by propidium iodide staining-based flow cytometry (reference value: 16.51%)", "assay_type": "functional"}, "[28]": {"test": "Cell cycle arrest in human KB cells assessed as accumulation at S-phase at 0.1 uM measured after 12 hrs by propidium iodide staining-based flow cytometry (reference value: 15.5%)", "assay_type": "functional"}, "[29]": {"test": "Cell cycle arrest in human KB cells assessed as accumulation at G2/M-phase measured after 36 hrs by propidium iodide staining-based flow cytometry (reference value: 27.34%)", "assay_type": "functional"}, "[30]": {"test": "Cell cycle arrest in human KB cells assessed as increase in subG1-peak at 0.2 uM by propidium iodide staining-based flow cytometry", "assay_type": "functional", "conditions": "TDE = time-dependent effect"}, "[31]": {"test": "Cell cycle arrest in human KB cells assessed as accumulation at SubG1-phase measured after 24 hrs by propidium iodide staining-based flow cytometry (reference value: 0.76%)", "assay_type": "functional"}, "[32]": {"test": "Cell cycle arrest in human KB cells assessed as accumulation at G2/M-phase at 0.05 uM measured after 60 hrs by propidium iodide staining-based flow cytometry (reference value: 18.9%)", "assay_type": "functional"}, "[33]": {"test": "Cell cycle arrest in human KB cells assessed as accumulation at S-phase at 0.05 uM measured after 48 hrs by propidium iodide staining-based flow cytometry (reference value: 13.32%)", "assay_type": "functional"}, "[34]": {"test": "Cell cycle arrest in human KB cells assessed as accumulation at S-phase at 0.05 uM measured after 12 hrs by propidium iodide staining-based flow cytometry (reference value: 15.5%)", "assay_type": "functional"}, "[35]": {"test": "Cell cycle arrest in human KB cells assessed as accumulation at G2/M-phase at 0.2 uM measured after 60 hrs by propidium iodide staining-based flow cytometry (reference value: 18.9%)", "assay_type": "functional"}}, "note": "Activity calls are given as the source filed them. The calls are words filed in the database; no cut-off is given here."}
{"smiles": "COc1ccc(-c2ssc(=O)c2-c2cc(OC)c(OC)c(OC)c2)cc1N", "values": [{"measurement": "Activity", "setting": "[1]", "value": 13.1, "unit": "%"}, {"measurement": "Activity", "setting": "[2]", "value": 15.5, "unit": "%"}, {"measurement": "Activity", "setting": "[3]", "value": 49.9, "unit": "%"}, {"measurement": "Activity", "setting": "KB", "value": "Active"}, {"measurement": "Activity", "setting": "[4]", "value": 58.1, "unit": "%"}, {"measurement": "Activity", "setting": "[5]", "value": 8.66, "unit": "%"}, {"measurement": "Activity", "setting": "[6]", "value": 1.85, "unit": "%"}, {"measurement": "Activity", "setting": "[7]", "value": 8.75, "unit": "%"}, {"measurement": "Activity", "setting": "[8]", "value": 15.5, "unit": "%"}, {"measurement": "Activity", "setting": "[9]", "value": 52.1, "unit": "%"}, {"measurement": "IC50", "setting": "[10]", "value": 172, "unit": "nM"}, {"measurement": "Activity", "setting": "[11]", "value": 50.3, "unit": "%"}, {"measurement": "Activity", "setting": "[12]", "value": 19.4, "unit": "%"}, {"measurement": "Activity", "setting": "[13]", "value": 37.8, "unit": "%"}, {"measurement": "Activity", "setting": "[14]", "value": 55.3, "unit": "%"}, {"measurement": "Activity", "setting": "[15]", "value": 12.3, "unit": "%"}, {"measurement": "Activity", "setting": "[16]", "value": 36.6, "unit": "%"}, {"measurement": "Activity", "setting": "[17]", "value": 21.5, "unit": "%"}, {"measurement": "Activity", "setting": "[18]", "value": 2.22, "unit": "%"}, {"measurement": "Activity", "setting": "[19]", "value": 11.1, "unit": "%"}, {"measurement": "Activity", "setting": "[20]", "value": 11.7, "unit": "%"}, {"measurement": "Activity", "setting": "[21]", "value": 50.9, "unit": "%"}, {"measurement": "Activity", "setting": "[22]", "value": 36.7, "unit": "%"}, {"measurement": "Activity", "setting": "[23]", "value": 22.6, "unit": "%"}, {"measurement": "Activity", "setting": "[24]", "value": 15.9, "unit": "%"}, {"measurement": "Activity", "setting": "[25]", "value": 25.4, "unit": "%"}, {"measurement": "Activity", "setting": "[26]", "value": 10.4, "unit": "%"}, {"measurement": "Activity", "setting": "[27]", "value": 14.5, "unit": "%"}, {"measurement": "Activity", "setting": "[28]", "value": 21.6, "unit": "%"}, {"measurement": "Activity", "setting": "[29]", "value": 27.9, "unit": "%"}, {"measurement": "Activity", "setting": "[30]", "value": "Tde"}, {"measurement": "Activity", "setting": "[31]", "value": 12.3, "unit": "%"}, {"measurement": "Activity", "setting": "[32]", "value": 14, "unit": "%"}, {"measurement": "Activity", "setting": "[33]", "value": 10.9, "unit": "%"}, {"measurement": "Activity", "setting": "[34]", "value": 16.4, "unit": "%"}, {"measurement": "Activity", "setting": "[35]", "value": 19.9, "unit": "%"}]}
